Data published in PubChem BioAssay AID2060891 (Molecular Pharmacology Branch, DTP, NCI, 2025).

System: K98450-129-R-PDC complex spheroid growth, percent test/control
Assay: Anticancer human tumor K98450-129-R-PDC patient-derived colon adenocarcinoma cell line growth inhibition [RAS]
Settings: second compound 0.00316 µM; first compound 1 µM; stronger effect = lower value
Method in brief: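 Agents were tested in combination matrices in half-log decrements from a top concentration at or near clinical Cmax (10 microM if undetermined). Targets were multi-cell spheroids of tumour lines plus HUVEC and MSC stromal cells.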
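Further: luminescence used as a proxy for viable cell amount; spheroids exposed to agents for seven days before the viability readout.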

Row | SMILES | viability, T/C
1 | CCN1CCN(Cc2ccc(Nc3ncc(F)c(-c4cc(F)c5nc(C)n(C(C)C)c5c4)n3)nc2)CC1 + C=CC(=O)N1CCN(c2nc(OCC3CCCN3C)nc3c(F)c(-c4nc(N)cc(C)c4C(F)(F)F)c(Cl)cc23)C(C)C1 | 47.8%
2 | C[C@@H](NC(=O)c1ncnc(N)c1Cl)c1ncc(C(=O)Nc2cc(C(F)(F)F)c(Cl)cn2)s1 + C=CC(=O)N1CCN(c2nc(OCC3CCCN3C)nc3c(F)c(-c4nc(N)cc(C)c4C(F)(F)F)c(Cl)cc23)C(C)C1 | 108%

Same assay, conditions: second compound 0.00316 µM; first compound 3.16 µM; stronger effect = lower value

Row | SMILES | viability, T/C
3 | CC(C)NCC(C(=O)N1CCN(c2ncnc3c2C(C)CC3O)CC1)c1ccc(Cl)cc1 (stereo unspecified) + C=CC(=O)N1CCN(c2nc(OCC3CCCN3C)nc3c(F)c(-c4nc(N)cc(C)c4C(F)(F)F)c(Cl)cc23)C(C)C1 | 91.4%
4 | CC1(O)CCCC1n1c(=O)c(C(F)F)cc2cnc(NC3CCN(S(C)(=O)=O)CC3)nc21 (stereo unspecified) + C=CC(=O)N1CCN(c2nc(OCC3CCCN3C)nc3c(F)c(-c4nc(N)cc(C)c4C(F)(F)F)c(Cl)cc23)C(C)C1 | 56.2%
5 | C[C@@H](NC(=O)c1ncnc(N)c1Cl)c1ncc(C(=O)Nc2cc(C(F)(F)F)c(Cl)cn2)s1 + C=CC(=O)N1CCN(c2nc(OCC3CCCN3C)nc3c(F)c(-c4nc(N)cc(C)c4C(F)(F)F)c(Cl)cc23)C(C)C1 | 115%

Same assay, conditions: second compound 0.00316 µM; first compound 10 µM; stronger effect = lower value

Row | SMILES | viability, T/C
6 | CC(C)NCC(C(=O)N1CCN(c2ncnc3c2C(C)CC3O)CC1)c1ccc(Cl)cc1 (stereo unspecified) + C=CC(=O)N1CCN(c2nc(OCC3CCCN3C)nc3c(F)c(-c4nc(N)cc(C)c4C(F)(F)F)c(Cl)cc23)C(C)C1 | 91.2%
7 | CC1(O)CCCC1n1c(=O)c(C(F)F)cc2cnc(NC3CCN(S(C)(=O)=O)CC3)nc21 (stereo unspecified) + C=CC(=O)N1CCN(c2nc(OCC3CCCN3C)nc3c(F)c(-c4nc(N)cc(C)c4C(F)(F)F)c(Cl)cc23)C(C)C1 | 49.1%
8 | C[C@@H](NC(=O)c1ncnc(N)c1Cl)c1ncc(C(=O)Nc2cc(C(F)(F)F)c(Cl)cn2)s1 + C=CC(=O)N1CCN(c2nc(OCC3CCCN3C)nc3c(F)c(-c4nc(N)cc(C)c4C(F)(F)F)c(Cl)cc23)C(C)C1 | 94%

Same assay, conditions: second compound 0.01 µM; first compound 0.000316 µM; stronger effect = lower value

Row | SMILES | viability, T/C
9 | CC(C)n1nc(-c2ccc3oc(N)nc3c2)c2c(N)ncnc21 + C=CC(=O)N1CCN(c2nc(OCC3CCCN3C)nc3c(F)c(-c4nc(N)cc(C)c4C(F)(F)F)c(Cl)cc23)C(C)C1 | 75.9%

Same assay, conditions: second compound 0.01 µM; first compound 0.001 µM; stronger effect = lower value

Row | SMILES | viability, T/C
10 | CC(C)n1nc(-c2ccc3oc(N)nc3c2)c2c(N)ncnc21 + C=CC(=O)N1CCN(c2nc(OCC3CCCN3C)nc3c(F)c(-c4nc(N)cc(C)c4C(F)(F)F)c(Cl)cc23)C(C)C1 | 78.9%

Same assay, conditions: second compound 0.01 µM; first compound 0.00316 µM; stronger effect = lower value

Row | SMILES | viability, T/C
11 | CC(C)n1nc(-c2ccc3oc(N)nc3c2)c2c(N)ncnc21 + C=CC(=O)N1CCN(c2nc(OCC3CCCN3C)nc3c(F)c(-c4nc(N)cc(C)c4C(F)(F)F)c(Cl)cc23)C(C)C1 | 75%
12 | CCN1CCN(Cc2ccc(Nc3ncc(F)c(-c4cc(F)c5nc(C)n(C(C)C)c5c4)n3)nc2)CC1 + C=CC(=O)N1CCN(c2nc(OCC3CCCN3C)nc3c(F)c(-c4nc(N)cc(C)c4C(F)(F)F)c(Cl)cc23)C(C)C1 | 90.8%

Same assay, conditions: second compound 0.01 µM; first compound 0.01 µM; stronger effect = lower value

Row | SMILES | viability, T/C
13 | CC(C)n1nc(-c2ccc3oc(N)nc3c2)c2c(N)ncnc21 + C=CC(=O)N1CCN(c2nc(OCC3CCCN3C)nc3c(F)c(-c4nc(N)cc(C)c4C(F)(F)F)c(Cl)cc23)C(C)C1 | 70%
14 | CCN1CCN(Cc2ccc(Nc3ncc(F)c(-c4cc(F)c5nc(C)n(C(C)C)c5c4)n3)nc2)CC1 + C=CC(=O)N1CCN(c2nc(OCC3CCCN3C)nc3c(F)c(-c4nc(N)cc(C)c4C(F)(F)F)c(Cl)cc23)C(C)C1 | 86.8%

Same assay, conditions: second compound 0.01 µM; first compound 0.0316 µM; stronger effect = lower value

Row | SMILES | viability, T/C
15 | CC(C)NCC(C(=O)N1CCN(c2ncnc3c2C(C)CC3O)CC1)c1ccc(Cl)cc1 (stereo unspecified) + C=CC(=O)N1CCN(c2nc(OCC3CCCN3C)nc3c(F)c(-c4nc(N)cc(C)c4C(F)(F)F)c(Cl)cc23)C(C)C1 | 89.3%
16 | CC(C)n1nc(-c2ccc3oc(N)nc3c2)c2c(N)ncnc21 + C=CC(=O)N1CCN(c2nc(OCC3CCCN3C)nc3c(F)c(-c4nc(N)cc(C)c4C(F)(F)F)c(Cl)cc23)C(C)C1 | 61.2%
17 | CC1(O)CCCC1n1c(=O)c(C(F)F)cc2cnc(NC3CCN(S(C)(=O)=O)CC3)nc21 (stereo unspecified) + C=CC(=O)N1CCN(c2nc(OCC3CCCN3C)nc3c(F)c(-c4nc(N)cc(C)c4C(F)(F)F)c(Cl)cc23)C(C)C1 | 86.1%
18 | CCN1CCN(Cc2ccc(Nc3ncc(F)c(-c4cc(F)c5nc(C)n(C(C)C)c5c4)n3)nc2)CC1 + C=CC(=O)N1CCN(c2nc(OCC3CCCN3C)nc3c(F)c(-c4nc(N)cc(C)c4C(F)(F)F)c(Cl)cc23)C(C)C1 | 73.7%
19 | C[C@@H](NC(=O)c1ncnc(N)c1Cl)c1ncc(C(=O)Nc2cc(C(F)(F)F)c(Cl)cn2)s1 + C=CC(=O)N1CCN(c2nc(OCC3CCCN3C)nc3c(F)c(-c4nc(N)cc(C)c4C(F)(F)F)c(Cl)cc23)C(C)C1 | 91.2%

Same assay, conditions: second compound 0.01 µM; first compound 0.1 µM; stronger effect = lower value

Row | SMILES | viability, T/C
20 | CC(C)NCC(C(=O)N1CCN(c2ncnc3c2C(C)CC3O)CC1)c1ccc(Cl)cc1 (stereo unspecified) + C=CC(=O)N1CCN(c2nc(OCC3CCCN3C)nc3c(F)c(-c4nc(N)cc(C)c4C(F)(F)F)c(Cl)cc23)C(C)C1 | 81.3%
21 | CC(C)n1nc(-c2ccc3oc(N)nc3c2)c2c(N)ncnc21 + C=CC(=O)N1CCN(c2nc(OCC3CCCN3C)nc3c(F)c(-c4nc(N)cc(C)c4C(F)(F)F)c(Cl)cc23)C(C)C1 | 51.6%
22 | CC1(O)CCCC1n1c(=O)c(C(F)F)cc2cnc(NC3CCN(S(C)(=O)=O)CC3)nc21 (stereo unspecified) + C=CC(=O)N1CCN(c2nc(OCC3CCCN3C)nc3c(F)c(-c4nc(N)cc(C)c4C(F)(F)F)c(Cl)cc23)C(C)C1 | 81.3%
23 | CCN1CCN(Cc2ccc(Nc3ncc(F)c(-c4cc(F)c5nc(C)n(C(C)C)c5c4)n3)nc2)CC1 + C=CC(=O)N1CCN(c2nc(OCC3CCCN3C)nc3c(F)c(-c4nc(N)cc(C)c4C(F)(F)F)c(Cl)cc23)C(C)C1 | 57.8%
24 | C[C@@H](NC(=O)c1ncnc(N)c1Cl)c1ncc(C(=O)Nc2cc(C(F)(F)F)c(Cl)cn2)s1 + C=CC(=O)N1CCN(c2nc(OCC3CCCN3C)nc3c(F)c(-c4nc(N)cc(C)c4C(F)(F)F)c(Cl)cc23)C(C)C1 | 92.5%

Same assay, conditions: second compound 0.01 µM; first compound 0.316 µM; stronger effect = lower value

Row | SMILES | viability, T/C
25 | CC(C)NCC(C(=O)N1CCN(c2ncnc3c2C(C)CC3O)CC1)c1ccc(Cl)cc1 (stereo unspecified) + C=CC(=O)N1CCN(c2nc(OCC3CCCN3C)nc3c(F)c(-c4nc(N)cc(C)c4C(F)(F)F)c(Cl)cc23)C(C)C1 | 85.1%
26 | CC1(O)CCCC1n1c(=O)c(C(F)F)cc2cnc(NC3CCN(S(C)(=O)=O)CC3)nc21 (stereo unspecified) + C=CC(=O)N1CCN(c2nc(OCC3CCCN3C)nc3c(F)c(-c4nc(N)cc(C)c4C(F)(F)F)c(Cl)cc23)C(C)C1 | 71.2%
